From patent US11649241B2, “Pyrazolochlorophenyl compounds, compositions and methods of use thereof” (Genentech, Inc., priority 2017, dated 2023)

Key:
[1] = target: isolated recombinant JAK1 kinase domain (Homo sapiens (Human), UniProt P23458); assay: JAK enzyme assay (Caliper LabChip peptide phosphorylation), JAK1; assay type: biochemical; settings: 1.5 nM JAK1, ATP 25 μM, Morrison tight binding model
[2] = target: isolated recombinant JAK2 kinase domain (Homo sapiens (Human), UniProt O60674); assay: JAK enzyme assay (Caliper LabChip peptide phosphorylation), JAK2; assay type: biochemical; settings: 0.2 nM JAK2, ATP 25 μM, Morrison tight binding model
[3] = test system: JAK1-dependent STAT6 phosphorylation downstream of IL-13 stimulation (TF-1 / BEAS-2B cells); assay: JAK1 pathway assay in cell lines (IL-13-stimulated pSTAT6, MSD); assay type: cell-based; settings: Homo sapiens, inhibition of STAT6 phosphorylation, cell line (TF-1 or BEAS-2B) not specified
Method: JAK1 Pathway Assay in Cell Lines was Carried Out as Follows:
Inhibitor potency (EC50) was determined in cell-based assays designed to measure JAK1 dependent STAT phosphorylation. As noted above, inhibition of IL-4, IL-13, and IL-9 signalling by blocking the Jak/Stat signaling pathway can alleviate asthmatic symptoms in pre-clinical lung inflammation models (Mathew et al., 2001, J Exp Med 193(9): 1087-1096; Kudlacz et. al., 2008, Eur J. Pharmacol 582(1-3): 154-161).
In one assay approach, TF-1 human erythroleukemia cells obtained from the American Type Culture Collection (ATCC; Manassas, Va.) were used to measure JAK1-dependent STAT6 phosphorylation downstream of IL-13 stimulation. Prior to use in the assays, TF-1 cells were starved of GM-CSF overnight in OptiMEM medium (Life Technologies, Grand Island, N.Y.) supplemented with 0.5% charcoal/dextran stripped fetal bovine serum (FBS), 0.1 mM non-essential amino acids (NEAA), and 1 mM sodium pyruvate. The assays were run in 384-well plates in serum-free OptiMEM medium using 300,000 cells per well. In a second assay approach, BEAS-2B human bronchial epithelial cells obtained from ATCC were plated at 100,000 cells per well of a 96-well plate one day prior to the experiment. The BEAS-2B assay was run in complete growth medium (bronchial epithelial basal medium plus bulletkit; Lonza; Basel, Switzerland).
Test compounds were serially diluted 1:2 in DMSO and then diluted 1:50 in medium just before use. Diluted compounds were added to the cells, for a final DMSO concentration of 0.2%, and incubated for 30 min (for the TF-1 assay) or 1 hr (for the BEAS-2B assay) at 37° C. Then, cells were stimulated with human recombinant cytokine at their respective EC90 concentrations, as previously determined for each individual lot. Cells were stimulated with IL-13 (R&D Systems, Minneapolis, Minn.) for 15 min at 37° C. The TF-1 cell reactions were stopped by the direct addition of 10× lysis buffer (Cell Signaling Technologies, Danvers, Mass.), whereas the BEAS-2B cell incubations were halted by the removal of medium and addition of 1× lysis buffer. The resultant samples were frozen in the plates at −80° C. Compound mediated inhibition of STAT6 phosphorylation was measured in the cell lysates using MesoScale Discovery (MSD) technology (Gaithersburg, Md.). EC50 values were determined as the concentration of compound required for 50% inhibition of STAT phosphorylation relative to that measured for the DMSO control.

Sequence of isolated recombinant JAK2 kinase domain (O60674 849-1124): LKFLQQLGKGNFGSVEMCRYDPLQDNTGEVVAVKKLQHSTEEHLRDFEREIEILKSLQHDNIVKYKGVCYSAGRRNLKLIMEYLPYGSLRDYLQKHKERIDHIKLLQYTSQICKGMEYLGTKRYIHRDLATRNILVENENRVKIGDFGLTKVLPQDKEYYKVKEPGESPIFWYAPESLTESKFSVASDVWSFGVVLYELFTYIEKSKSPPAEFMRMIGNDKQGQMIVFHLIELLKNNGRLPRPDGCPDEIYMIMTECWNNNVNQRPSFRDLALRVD
Sequence of isolated recombinant JAK1 kinase domain (P23458 875-1153): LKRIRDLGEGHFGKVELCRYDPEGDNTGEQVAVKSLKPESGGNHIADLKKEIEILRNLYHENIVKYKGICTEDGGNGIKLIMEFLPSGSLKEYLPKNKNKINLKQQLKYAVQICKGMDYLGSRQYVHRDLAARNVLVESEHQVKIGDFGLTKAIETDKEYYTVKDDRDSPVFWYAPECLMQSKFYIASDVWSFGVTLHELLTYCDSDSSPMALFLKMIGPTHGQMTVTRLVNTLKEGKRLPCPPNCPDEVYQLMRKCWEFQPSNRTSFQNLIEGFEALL

| Ki [1] [nM] | Ki [2] [nM] | Structure (SMILES) | IC50 [3] [nM] |
| --- | --- | --- | --- |
| 1.35 | 0.35 | COc1ccc(Cl)cc1-c1nn(C)cc1NC(=O)c1cncc2cn[nH]c12 [Example 2, N-(3-(5-Chloro-2-methoxyphenyl)-1-methyl-1H-pyrazol-4-yl)-1H-pyrazolo[4,3-c]pyridine-7-carboxamide] | 35.9 |
| 3.63 | 3.66 | COc1ccc(Cl)cc1-c1nn(C)cc1NC(=O)c1cncc2cn(C)nc12 [Example 1, N-(3-(5-Chloro-2-methoxyphenyl)-1-methyl-1H-pyrazol-4-yl)-2-methyl-2H-pyrazolo[4,3-c]pyridine-7-carboxamide] | 92.8 |
| 2.29 | 0.41 | Cc1ccn2ncc(C(=O)Nc3c[nH]nc3-c3cc(Cl)ccc3OC(F)F)c2n1 [Example 13, N-(3-(5-chloro-2-(difluoromethoxy)phenyl)-1H-pyrazol-4-yl)-5-methylpyrazolo[1,5-a]pyrimidine-3-carboxamide] | 41.5 |
| 6.55 | 0.96 | COc1ccc(Cl)cc1-c1n[nH]cc1NC(=O)c1cncc2scnc12 [Example 3, N-(3-(5-Chloro-2-methoxyphenyl)-1H-pyrazol-4-yl)thiazolo[5,4-c]pyridine-7-carboxamide] | – |
| 0.41 | 0.09 | O=C(Nc1c[nH]nc1-c1cc(Cl)ccc1OC(F)F)c1cnn2cc(F)cnc12 [Example 12, N-(3-(5-chloro-2-(difluoromethoxy)phenyl)-1H-pyrazol-4-yl)-6-fluoropyrazolo[1,5-a]pyrimidine-3-carboxamide] | 16.8 |
| 0.49 | 0.17 | Nc1nn2cccnc2c1C(=O)Nc1c[nH]nc1-c1cc(Cl)ccc1OC(F)F [Example 9, 2-amino-N-(3-(5-chloro-2-(difluoromethoxy)phenyl)-1H-pyrazol-4-yl)pyrazolo[1,5-a]pyrimidine-3-carboxamide] | 7.9 |
| 9.5 | 2.02 | O=C(Nc1c[nH]nc1-c1cc(Cl)ccc1OC(F)F)c1cncc2scnc12 [Example 4, N-(3-(5-chloro-2-(difluoromethoxy)phenyl)-1H-pyrazol-4-yl)thiazolo[5,4-c]pyridine-7-carboxamide] | – |
| 5.67 | 2.55 | O=C(Nc1c[nH]nc1-c1cc(Cl)ccc1OC(F)F)c1cncc2[nH]cnc12 [Example 15, N-(3-(5-chloro-2-(difluoromethoxy)phenyl)-1H-pyrazol-4-yl)-3H-imidazo[4,5-c]pyridine-7-carboxamide] | – |
| 0.85 | 0.33 | O=C(Nc1c[nH]nc1-c1cc(Cl)ccc1OC(F)F)c1cncc2ccoc12 [Example 10, N-(3-(5-chloro-2-(difluoromethoxy)phenyl)-1H-pyrazol-4-yl)furo[3,2-c]pyridine-7-carboxamide] | 50.6 |
| 7.35 | 0.48 | O=C(Nc1c[nH]nc1-c1cc(Cl)ccc1OC(F)F)c1cncc2cn[nH]c12 [Example 6, N-(3-(5-chloro-2-(difluoromethoxy)phenyl)-1H-pyrazol-4-yl)-1H-pyrazolo[4,3-c]pyridine-7-carboxamide] | – |
| 0.56 | 0.49 | O=C(Nc1c[nH]nc1-c1cc(Cl)ccc1OC(F)F)c1coc2cccnc12 [Example 11, N-(3-(5-chloro-2-(difluoromethoxy)phenyl)-1H-pyrazol-4-yl)furo[3,2-b]pyridine-3-carboxamide] | 17.5 |
| 0.54 | 0.6 | O=C(Nc1c[nH]nc1-c1cc(Cl)ccc1OC(F)F)c1snc2cccnc12 [Example 7, N-(3-(5-chloro-2-(difluoromethoxy)phenyl)-1H-pyrazol-4-yl)isothiazolo[4,3-b]pyridine-3-carboxamide] | 20.2 |
| 0.57 | 0.34 | O=C(Nc1c[nH]nc1-c1cc(Cl)ccc1OC(F)F)c1cnc2[nH]ccc2n1 [Example 8, N-(3-(5-chloro-2-(difluoromethoxy)phenyl)-1H-pyrazol-4-yl)-5H-pyrrolo[3,2-b]pyrazine-2-carboxamide] | – |
| 0.97 | 0.06 | Nc1nc2c(C(=O)Nc3c[nH]nc3-c3cc(Cl)ccc3OC(F)F)cncc2s1 [Example 5, 2-amino-N-(3-(5-chloro-2-(difluoromethoxy)phenyl)-1H-pyrazol-4-yl)thiazolo[5,4-c]pyridine-7-carboxamide] | – |
| 0.18 | 0.04 | COc1ccn2ncc(C(=O)Nc3c[nH]nc3-c3cc(Cl)ccc3OC(F)F)c2n1 [Example 14, N-(3-(5-chloro-2-(difluoromethoxy)phenyl)-1H-pyrazol-4-yl)-5-methoxypyrazolo[1,5-a]pyrimidine-3-carboxamide] | 3.8 |
